Data published in paper PMC5062073, “Cellular uptake of a cystine-knot peptide and modulation of its intracellular trafficking” (Scientific Reports, 2016).

Tests used:
[1] = target: T1, trypsin (Bos taurus, UniProt P00760); experiment: Trypsin enzymatic assay; assay type: biochemical
T1 construct: gene PRSS1
T1 sequence (P00760 24-246): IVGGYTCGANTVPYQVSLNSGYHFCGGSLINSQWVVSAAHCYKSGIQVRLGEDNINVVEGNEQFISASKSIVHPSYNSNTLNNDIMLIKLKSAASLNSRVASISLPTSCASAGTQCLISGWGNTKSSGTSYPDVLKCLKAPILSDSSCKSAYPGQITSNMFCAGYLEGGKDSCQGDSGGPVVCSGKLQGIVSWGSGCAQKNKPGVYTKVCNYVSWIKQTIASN
Procedure: Assays were done as described earlier with slight modification. Briefly, normalized proteolytic activity of trypsin (2.3 pM) toward tosyl-GPR-AMC substrate (5 μM) was measured for 2 h after pre-incubation of the peptides with protease for 1 h at room temperature. The data were plotted and fitted using KaleidaGraph v3.6 software. Apparent […] (Ki^app) was determined from at least three independent measurements.

[2] = SGF with pepsin, pH 1.2, 37 °C, peptide 0.3 mg/ml, after several days; LC/MS, A214nm peak area vs internal standard
Procedure: Peptides were incubated at a concentration of 0.3 mg/ml in simulated gastric fluid at 37 °C for the indicated times. To prepare simulated gastric fluid, 2 g of sodium chloride, 43 mg of sodium thaurocholate, 16 mg of lecithin and 100 mg of pepsin were dissolved in 1 L of Milli-Q water (18.2 MΩ.cm^−1) and adjusted to pH 1.2 with 37% hydrochloric acid. At the indicated time points, 10 μl (3 μg) aliquots were removed from the reaction, quenched with 0.25 M NaOH and then mixed with 2.6 μg of the internal standard. Samples were immediately analyzed by analytical LC/MS (Agilent 1200 series) and the area under the A214nm peak was quantified.

[3] = target: trypsin (UniProt P00760); experiment: enzyme inhibition assay (trypsin proteolytic activity on a fluorogenic substrate); apparent; trypsin 2.3 pM, tosyl-GPR-AMC substrate 5 uM, activity measured for 2 h after pre-incubation of the peptides with protease for 1 h at room temperature

| Molecule | Ki [1] [nM] | remaining in simulated gastric fluid [2] [%] | Ki [3] [nM] |
| --- | --- | --- | --- |
| CC[C@H](C)[C@@H]1NC(=O)[C@H](CCCNC(=N)N)NC(=O)[C@@H]2CCCN2C(=O)[C@@H](NC(=O)CNC(=O)[C@H](CO)NC(=O)CN)CSSC[C@@H]2NC(=O)CNC(=O)[C@H](C)NC(=O)[C@H](CC(C)C)NC(=O)[C@@H]3CSSC[C@@H](C(=O)NCC(=O)NCC(=O)N[C@@H](CC(N)=O)C(=O)N[C@@H](CO)C(=O)O)NC(=O)[C@H](Cc4ccccc4)NC(=O)CNC(=O)[C@H](CC(N)=O)NC(=O)[C@@H]4CCCN4C(=O)CNC(=O)[C@H](CSSC[C@H](NC(=O)[C@H](CCCNC(=N)N)NC(=O)[C@H](CCSC)NC(=O)[C@H](CC(C)C)NC1=O)C(=O)N[C@@H](CCCCN)C(=O)N[C@@H](CCC(N)=O)C(=O)N[C@@H](CC(=O)O)C(=O)N[C@@H](CO)C(=O)N[C@@H](CC(=O)O)C(=O)N3)NC(=O)[C@H](C(C)C)NC2=O [rEETI-II] | 0.16 ± 0.01 | 50 | – |
| Alexa488-labeled recombinant EETI-II (peptide) | – | – | 0.71 |
| recombinant EETI-II (Ecballium elaterium trypsin inhibitor II) (peptide) | – | – | 0.16 |
